Earlier results as cited in PMC7135267, “Modified linear regression predicts drug-target interactions accurately” (PLoS ONE, 2020).

Test system: CFTR
Settings: rats, caffeine intake

SMILES: Cn1c(=O)c2c(ncn2C)n(C)c1=O [D00528, Caffeine]
- CFTR chloride secretion in intestine: increased
